# Laboratory results reported in paper PMC9971260 (Scientific Reports, 2023).
# Counter-ions that a name gives are not always drawn.
# Columns and labels:
# [1] = set-up: method as in earlier work; details: cited from earlier work
# [2] = mouse, in vivo, 50 mg/kg; cited from earlier work
# [3] = test system: carrageenan-induced hyperalgesia; test: post-treatment of carrageenan-induced hyperalgesia; assay type: in vivo, rat; details: rats
# Method: The PWL of untreated rats from the pre-treatment carrageenan study were used as a negative control in this experiment, as well. […] One hind paw was randomly selected to be the observed paw for the entirety of the experiment. Prior to administration of a treatment, the baseline (-23 h) PWL was assessed as described above.
# Twenty-three hours after administration of carrageenan, PWL was assessed (23 h) to confirm induction of hyperalgesia, and to establish the PWL prior to treatment. […] PWL was assessed relative to administration of treatment ([…], 48, 72, and 96 h), and two PWL measurements were taken at each time point for each rat.
# [4] = test system: carrageenan-induced paw edema and hyperalgesia; test: pre-treatment of carrageenan-induced paw edema and hyperalgesia; details: rats
# COX-1 = details: read-out: IC50 against COX-1; cited from earlier work
# postoperative pain [5] = test: pre- and post-treatment of postoperative pain (incisional model); assay type: in vivo, mouse; details: mice, pretreatment 5 mg/kg SC 2 h before surgery
# Method: Twenty-eight (28) mice were randomly assigned to one of four treatment groups: vehicle (5 μL/g, SC) (n = 8), UK4b (20 mg/kg, SC) (n = 7), UK4b (10 mg/kg, SC) (n = 7), and morphine (5 mg/kg, SC) (n = 6). This experiment took place over 14 days. Animals underwent the same acclimation and baseline measurement for PWL and mechanical sensitization threshold as described in the section above on Days -4 to -1. On Day 0, surgery was performed as described above, but each animal received their first treatment two hours prior to surgery (-2 h). Two hours after surgery was complete, PWL was assessed, followed by measurement of mechanical sensitization threshold. Treatment continued once daily from Days 1 through 7. Two hours after drug treatment, PWL and mechanical sensitization threshold are measured. On Day 9, 48 h after the final treatment was administered on Day 7, PWL and mechanical threshold are assessed to follow-up with the animals after treatment ceases. The PWL (seconds) was graphed relative to time (days since surgery). Mechanical sensitization thresholds were graphed as 50% threshold (grams) versus time (days since surgery).
# postoperative pain [6] = test: post-treatment of postoperative pain (incisional model); assay type: in vivo, mouse; details: mice, 5 mg/kg SC daily Days 1 to 7
# Method: Thirty-one (31) mice were randomly assigned to one of four treatment groups: vehicle (5 μL/g, SC) (n = 8), UK4b (20 mg/kg, SC) (n = 7), UK4b (10 mg/kg, SC) (n = 8), and morphine (5 mg/kg, SC) (n = 8). This experiment took place over 14 days. […] Similarly, four days before surgery, the animals began acclimation for one hour per day to the mechanical sensitization (allodynia) apparatus before assessment. Mechanical sensitization was measured with a series of 8 von Frey fiber filaments (0.008 g (1.65); 0.02 g (2.36); 0.07 g (2.83); 0.16 g (3.22); 0.4 g (3.61); 1.0 g (4.08); 2.0 g (4.31); 6.0 g (4.74); Stoelting, Wood Dale, IL) using a modified up-down method. For the algorithm, each filament is applied to the plantar surface of the hind paw for five times. If the mouse retracts that hind paw at least three times, that is considered a positive response to the filament, and the next applied filament would be weaker than the last. If the animal retracts the hind paw fewer than three times, this is a negative response, and the next stronger filament is applied. […] Two hours after surgery was complete, PWL was assessed, followed by measurement of mechanical sensitization threshold. […] On Day 9, 48 h after the final treatment was administered on Day 7, PWL and mechanical sensitization threshold were assessed to follow-up with the animals after treatment ceased. […]
# COX-2 = details: cited from earlier work
smiles,measurement,setting,value
"CCCCC[C@H](O)/C=C/[C@H]1[C@H](O)CC(=O)[C@@H]1C/C=C\CCCC(=O)O [PGE2, prostaglandin E2]",plasma half-life,[1],2.5 to 5 min
Cc1ccc(-c2cc(C(F)(F)F)nn2-c2ccc(S(N)(=O)=O)cc2)cc1 [celecoxib],stomach tissue damage,[2],caused stomach tissue damage in all mice
NCC1(CC(=O)O)CCCCC1 [gabapentin],"carrageenan-induced hyperalgesia (PWL), post-treatment",[3]; 100 mg/kg IP 23 h after carrageenan,significantly relieved the pain
same,carrageenan-induced hyperalgesia (PWL),[4]; pretreatment 100 mg/kg IP 1 h or 4 h before carrageenan,"similarly relieved the hyperalgesia, but 100 mg/kg gabapentin was not as effective as 10 mg/kg UK4b"
CN1CC[C@]23c4c5ccc(O)c4O[C@H]2[C@@H](O)C=C[C@H]3[C@H]1C5 [morphine],postoperative allodynia (50% mechanical threshold) on Day 0,postoperative pain [5],did not significantly attenuate the postoperative allodynia
same,postoperative hyperalgesia (PWL) on Day 0,postoperative pain [5],significantly attenuating the postoperative hyperalgesia
same,postoperative allodynia (50% mechanical threshold),postoperative pain [6],significantly attenuated
same,postoperative hyperalgesia (PWL),postoperative pain [6],significantly attenuated
"COc1ccc2c3c1O[C@H]1C(=O)CC[C@@]4(O)[C@@H](C2)N(C)CC[C@]314 [oxycodone, Oxycodone hydrochloride]","carrageenan-induced hyperalgesia (PWL), post-treatment",[3]; 5 mg/kg IP 23 h after carrageenan,significantly relieved the pain
same,carrageenan-induced hyperalgesia (PWL),"[4]; pretreatment 5 mg/kg IP, at and after 23 h",still significant pain
same,carrageenan-induced hyperalgesia (PWL),"[4]; pretreatment 5 mg/kg IP, within six hours after carrageenan injection",effectively relieved the pain
CS(=O)(=O)c1ccc(C2=C(c3ccccc3)C(=O)OC2)cc1 [rofecoxib],IC50 against COX-2 (in words),COX-2,low-nanomolar
